{
  "source": "patent US8008007B2",
  "about": "“S-adenosyl-L-methionine analogs with extended activated groups for transfer by methyltransferases” (RWTH Aachen, priority 2005, dated 2011)",
  "biological_target": "T1, M.HhaI-Q82A/N304A (Haemophilus parahaemolyticus, UniProt P05102, N304A/Q82A)",
  "T1 construct": "made in house",
  "T1 sequence (P05102 whole entry Q82A/N304A, the tested form may be a part)": "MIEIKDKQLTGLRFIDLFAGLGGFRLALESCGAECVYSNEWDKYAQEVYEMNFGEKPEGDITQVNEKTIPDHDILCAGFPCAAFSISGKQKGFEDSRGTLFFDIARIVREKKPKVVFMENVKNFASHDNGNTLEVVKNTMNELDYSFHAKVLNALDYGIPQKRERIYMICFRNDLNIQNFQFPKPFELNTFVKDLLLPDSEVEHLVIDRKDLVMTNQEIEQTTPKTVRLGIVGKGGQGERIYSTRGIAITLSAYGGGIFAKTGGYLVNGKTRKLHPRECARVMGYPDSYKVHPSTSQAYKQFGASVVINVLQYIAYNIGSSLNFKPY",
  "test": "Modification of cytosine-C5 in duplex oligodeoxynucleotide III.IV by M.HhaI-Q82A/N304A, nucleoside analysis by HPLC/ESI-MS",
  "format": "biochemical",
  "details": "duplex III.IV 10 μM, cofactor 300 μM, enzyme 12.5 μM, 37° C. over night",
  "protocol": "After enzymatic transfer the duplex oligodeoxy-nucleotides were enzymatically fragmented and the resulting modified nucleosides were analyzed by reversed-phase HPLC coupled with ESI-MS.\nTherefore, the codon for N304 was changed to a codon for alanine by standard Megaprimer PCR mutagenesis (Sambrook and Russell, (2001) Cold Spring Harbor Laboratory Press, 13.31-13.35) and the fragment containing this mutation was cloned into the plasmid containing the Q82A mutation (Example 2B, Example 3B.2. The correct DNA sequence of the complete gene was verified by DNA sequencing. Expression and purification of the Q82A/N304A variant was performed as described for the wild-type enzyme (Kumar et al., (1992) Biochemistry 31, 8648-8653; Klimasauskas et al., (1998) EMBO J. 17, 317-324). The presence of the amino acid substitution was verified by mass spectrometric analysis of purified M.HhaI-Q82A/N304A.\nThe duplex oligodeoxynucleotide III.IV (compare Scheme 6, Example 2B) was produced by mixing equal molar amounts (2.5 nmol) of complementary single-stranded oligodeoxynucleotide III (5′-[…] CTAT-3′) (SEQ ID NO. 3) and IV (5′-[…]-3′) (SEQ. ID NO. 4) in water, heating at 85° C. for 5 min and slow cooling to room temperature. […] The solution was heated to 80° C. for 10 min, supplemented with Proteinase K and incubated at 55° C. for 2 h. […]",
  "data": [
    {"smiles": "NCCCC(=O)NCC#CC[S+](CCC(N)C(=O)O)CC1OC(n2cnc3c(N)ncnc32)C(O)C1O", "note": "(stereo not shown) [Cofactor 10]", "values": [
      {"measurement": "cofactor function for M.HhaI-Q82A/N304A (transfer of group Z-R to cytosine-C5)", "value": "functions as a cofactor"}
    ]}
  ]
}
